The values that follow come from patent US20230304010A1, “COMPOSITIONS AND METHODS FOR TREATING VIRAL INFECTIONS” (priority 2020, published 2023).

Ends that are not written are not given here. A value given as a limit tells only on which side of the number the result lay.

Data set [1] concerns the target ACE2:SARS-CoV-2 Spike interaction (UniProt P0DTC2+Q9BYF1). The data set is described as follows: biochemical. Conditions: for IC50: ACE2:SARS-CoV-2 Spike IC50. The class given is binding.
The target in data set [2] is SARS-CoV-2 Spike: ACE2 interaction (UniProt P0DTC2+Q9BYF1). The data set is described as follows: biochemical. The data set is classed as binding. The conditions noted are these: SARS-CoV-2 Spike:ACE2 IC50.
SARS-CoV-2 Spike: ACE2 interaction, sequence (Q9BYF1 18-740, one chain of several): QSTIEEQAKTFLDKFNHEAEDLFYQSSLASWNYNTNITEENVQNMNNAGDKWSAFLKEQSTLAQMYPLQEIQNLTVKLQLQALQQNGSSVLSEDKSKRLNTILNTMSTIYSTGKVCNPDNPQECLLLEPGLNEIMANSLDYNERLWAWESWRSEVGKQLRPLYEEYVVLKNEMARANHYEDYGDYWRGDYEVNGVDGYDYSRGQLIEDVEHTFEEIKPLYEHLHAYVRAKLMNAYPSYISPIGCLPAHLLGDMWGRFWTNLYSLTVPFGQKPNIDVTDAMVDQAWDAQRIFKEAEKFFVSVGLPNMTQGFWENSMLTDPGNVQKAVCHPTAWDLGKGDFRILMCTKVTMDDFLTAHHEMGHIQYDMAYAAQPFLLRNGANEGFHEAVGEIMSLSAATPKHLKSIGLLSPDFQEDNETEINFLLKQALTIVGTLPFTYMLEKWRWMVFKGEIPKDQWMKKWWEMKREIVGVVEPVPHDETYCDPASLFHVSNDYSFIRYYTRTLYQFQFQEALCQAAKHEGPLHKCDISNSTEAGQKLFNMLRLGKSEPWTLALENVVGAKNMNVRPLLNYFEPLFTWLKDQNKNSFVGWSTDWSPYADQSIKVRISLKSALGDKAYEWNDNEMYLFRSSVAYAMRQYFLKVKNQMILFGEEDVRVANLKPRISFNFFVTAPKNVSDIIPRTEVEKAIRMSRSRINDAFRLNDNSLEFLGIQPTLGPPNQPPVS
A short description of data set [3]: Nanoparticle formation of peptides with ADGN-106: mean size and polydispersity (Zetasizer). The data set is classed as physicochemical. Conditions: 25° C.; for Mean Size (nm): peptide/ADGN-106 complexes; for PI: polydispersity index of peptide/ADGN-106 complexes. The text has this: We then tested the ability of the different peptides to form nanoparticle organization in the presence of ADGN-106 or ADGN-100 peptide. […] Peptides were complexed with 5 or 10 molar excess of ADGN-106.

ACE2:SARS-CoV-2 Spike interaction, sequence (Q9BYF1 18-740, one chain of several): as above

For the compound `CSCC[C@H](NC(=O)[C@H](CCC(N)=O)NC(=O)[C@H](C)NC(=O)[C@H](CC(C)C)NC(=O)[C@@H](NC(=O)[C@H](CO)NC(=O)[C@H](CCC(N)=O)NC(=O)[C@H](CCC(=O)O)NC(=O)[C@H](CCCCN)NC(=O)[C@H](CC(C)C)NC(=O)[C@H](Cc1ccccc1)NC(=O)[C@H](C)NC(=O)[C@H](CO)NC(=O)[C@H](Cc1c[nH]c2ccccc12)NC(=O)[C@H](CCCCN)NC(=O)[C@@H]1CCCN1C(=O)[C@H](Cc1ccccc1)NC(=O)[C@H](CC(C)C)NC(=O)[C@H](CC(=O)O)NC(=O)[C@H](CCC(=O)O)NC(=O)[C@H](C)NC(=O)[C@H](CCC(=O)O)NC(=O)[C@H](Cc1c[nH]cn1)NC(=O)[C@H](CC(N)=O)NC(=O)[C@H](Cc1ccccc1)NC(=O)[C@H](CCCCN)NC(=O)[C@H](CC(=O)O)NC(=O)[C@H](CC(C)C)NC(=O)[C@H](Cc1ccccc1)NC(=O)[C@@H](NC(=O)[C@H](CCCCN)NC(C)=O)[C@@H](C)O)[C@@H](C)O)C(=O)N[C@@H](Cc1ccc(O)cc1)C(=O)NCC(=O)NCCCCCC(=O)N[C@@H](CC(C)C)C(=O)N[C@@H](Cc1c[nH]c2ccccc12)C(=O)N[C@@H](CCCNC(=N)N)C(=O)N[C@@H](C)C(=O)N[C@@H](CC(C)C)C(=O)N[C@@H](Cc1c[nH]c2ccccc12)C(=O)N[C@@H](CCCNC(=N)N)C(=O)N[C@@H](CC(C)C)C(=O)N[C@@H](Cc1c[nH]c2ccccc12)C(=O)N[C@@H](CCCNC(=N)N)C(=O)N[C@@H](CO)C(=O)N[C@@H](CC(C)C)C(=O)N[C@@H](Cc1c[nH]c2ccccc12)C(=O)N[C@@H](CCCNC(=N)N)C(=O)N[C@@H](CC(C)C)C(=O)N[C@@H](CC(C)C)C(=O)N[C@@H](Cc1c[nH]c2ccccc12)C(=O)N[C@@H](CCCCN)C(N)=O` [Seq40], in data set [1], the “increase of potency/efficiency by covalent coupling to ADGN peptide” value was 1.4 folds and the IC50 (usually the midpoint of a concentration-inhibition curve) amounted to 0.0854 ± 0.012 µM. This compound registered a half-inhibitory concentration (IC50) in data set [2] of 0.0451 µM. Besides, in data set [3], the “Mean Size (nm)” value came to 54.5 ± 14 nm and the PI came out at 0.31.

Consider `CC(C)C[C@H](NC(=O)[C@@H]1CCCN1C(=O)[C@H](Cc1ccccc1)NC(=O)[C@@H](N)Cc1ccc(O)cc1)C(=O)N[C@@H](CCC(N)=O)C(=O)N[C@@H](CO)C(=O)N[C@@H](Cc1ccc(O)cc1)C(=O)NCC(=O)N[C@@H](Cc1ccccc1)C(=O)N[C@@H](CCC(N)=O)C(=O)N1CCC[C@H]1C(=O)N[C@H](C(=O)N[C@@H](CC(N)=O)C(=O)NCC(=O)N[C@H](C(=O)NCC(=O)N[C@@H](Cc1ccc(O)cc1)C(=O)N[C@@H](CCC(N)=O)C(=O)O)C(C)C)[C@@H](C)O` [Seq8], for which the IC50 in data set [1] and in data set [2] was > 10 µM throughout.

For the compound SYGFQPTNGV [Seq9], the half-maximal inhibitory concentration (IC50) in data set [1] and in data set [2] was > 10 µM each time.

On to STEYQAGST [Seq5], for which the IC50 in data set [1] and in data set [2] was > 10 µM in each case.

On to “Ac-S*KVGGNYNYLY*R-Ava/Ahx-LWRALWRLWRSLWRLLWK-NH2 [Seq12]”, for which the “blocked ACE2:SARS-CoV-2 Spike interaction” value in data set [1] was “blocked”. Besides, in data set [3], the “Mean Size (nm)” value amounted to 35.4 ± 5 nm and the PI stood at 0.21.

Regarding `CC(C)C[C@H](NC(=O)[C@H](CCCNC(=N)N)NC(=O)[C@H](Cc1ccc(O)cc1)NC(=O)[C@H](CC(C)C)NC(=O)[C@H](Cc1ccc(O)cc1)NC(=O)[C@H](CC(N)=O)NC(=O)[C@H](Cc1ccc(O)cc1)NC(=O)[C@H](CC(N)=O)NC(=O)CNC(=O)CN)C(=O)N[C@@H](Cc1ccccc1)C(=O)N[C@@H](CCCNC(=N)N)C(=O)N[C@@H](CCCCN)C(=O)O` [Seq4], the 50% inhibitory concentration (IC50) in data set [1] and in data set [2] was > 10 µM in each case.

Take Ac-KTFLDKFNHEAEDLFYS [Seq26]: the IC50 in data set [1] stood at 2.1 µM; in data set [2], 1.9 µM.
